In patent publication US20130252983A1, “ACTIVATING PHOSPHORYLATION SITE ON GLUTAMINASE C” (CORNELL UNIVERSITY, priority 2010, published 2013):

Assays:
[1] = biological target: T1, GA activity of NIH 3T3 cells stably expressing Dbl or Cdc42(F28L) (Mus musculus, UniProt D3Z7P3); test: GA activity in mitochondrial fractions of treated transformed NIH 3T3 cells; type: cell-based
T1 construct: endogenous in cells; host or cells: NIH 3T3 cells stably expressing Dbl or Cdc42(F28L); mitochondrial fraction
T1 sequence (D3Z7P3 55-603 isoform D3Z7P3-2): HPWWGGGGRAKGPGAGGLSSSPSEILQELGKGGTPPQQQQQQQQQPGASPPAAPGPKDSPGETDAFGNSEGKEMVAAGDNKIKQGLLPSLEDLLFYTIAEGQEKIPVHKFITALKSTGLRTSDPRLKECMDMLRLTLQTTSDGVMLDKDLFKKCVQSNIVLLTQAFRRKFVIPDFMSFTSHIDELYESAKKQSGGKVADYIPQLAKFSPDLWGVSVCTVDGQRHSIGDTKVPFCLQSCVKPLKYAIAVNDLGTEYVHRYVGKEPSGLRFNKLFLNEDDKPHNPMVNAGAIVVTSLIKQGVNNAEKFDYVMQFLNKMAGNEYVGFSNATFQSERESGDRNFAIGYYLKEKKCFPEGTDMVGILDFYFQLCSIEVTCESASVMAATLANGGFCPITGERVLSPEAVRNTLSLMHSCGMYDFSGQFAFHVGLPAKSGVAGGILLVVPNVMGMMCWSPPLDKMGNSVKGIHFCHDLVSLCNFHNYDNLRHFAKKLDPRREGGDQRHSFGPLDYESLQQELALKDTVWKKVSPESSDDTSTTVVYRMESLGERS
Procedure: (§1) 100%=620 moles of glutamine hydrolyzed per minute per mole of enzyme. Data represent the average of 3 experiments (±s.d.). […] Following precipitation of the beads and re-suspension, the samples were analyzed by Western blotting with anti-V5 antibody. […] Data represent the average of 3 experiments (±s.d.). […] Data represent the average of 3 experiments (±s.d.). […] Data represent the average of 3 experiments (±s.d.). FIG. 3E NIH 3T3 cells transiently expressing Dbl were assayed for focus formation in the presence of 10 μM 968 alone or together with 7 mM dimethyl α-ketoglutarate. […] 100%=680 nM glutamine hydrolyzed per minute per 10^5 cells. Data are the average of 3 experiments (±s.d.). […] 100%=750 nM glutamine hydrolyzed per minute per 10^5 cells. Data represent the average of 3 experiments (±s.d.).
(§2) FIGS. 4A-E illustrate the role of glutaminase C activity in cellular transformation. […] Data represent the average of 3 experiments (±s.d.). […] Data represent the average of 3 experiments (±s.d.). […] 100% represents the activity measured in untreated Dbl-transformed cells. The data represent the average of 2 experiments. […] 100% represents the activity measured in untreated SKBR3 cells. The data represent the average of 2 experiments. […] Data represent the average of 3 experiments (±s.d.).
FIGS. 11A-E illustrate the effects of different treatments on GA activity. […] The addition of Pi stimulated the GA activity in control 3T3 cells, Dbl-expressing cells, and Cdc42(F28L)-expressing cells by ˜6-fold, 2-fold, and 3-fold, respectively. 100% represents the Pi-stimulated activity measured for Dbl-transformed cells that were not treated with 968. Data is the average of 3 experiments (±s.d.). […] The addition of Pi stimulated the GA activity of HMECs, MDA-MB231 cells, and SKBR3 cells by ˜5-fold, 2-fold, and 1.4-fold, respectively. 100% represents the Pi-stimulated activity for SKBR3 cells that were not treated with 968. Data are the average of 3 experiments (±s.d.). […] Mitochondrial fractions were prepared from equal numbers of cells and assayed for GA activity in the presence or absence of 133 mM Pi. The data are plotted as the percentage of GA activity measured for untreated SKBR3 cells and represent the average of 2 experiments. […] 100% represents the Pi-stimulated activity measured for untreated Dbl-transformed cells. The data represent the average of 2 experiments. […] 100% represents the Pi-stimulated activity for untreated SKBR3 cells. The data represent the average of 2 experiments.
Dbl expressing NIH 3T3 cells were treated for 48 hours in the presence or absence of 968 (10 μM), Bay 11-7082 (2 μM) or Rapamycin (100 nM). Mitochondria were then isolated from the treated cells and assayed for glutaminase activity in the absence or presence of phosphate.
Mitochondrial preparations were obtained using the mitochondria isolation kit from QIAGEN (Cat #37612). A suspension containing 2×10^7 cells was transferred into a 50 ml conical tube and centrifuged at 500×g for 10 minutes at 4° C. The pellets were resuspended in 2 ml of ice-cold lysis buffer (supplied by QIAGEN) and incubated for 10 minutes at 4° C. using an end-over-end shaker. The lysates were centrifuged at 1000×g for 10 minutes at 4° C., and the pellets were resuspended in a buffer supplied by the manufacturer and disrupted completely by using a blunt-ended, 23-gauge needle and a syringe, followed by centrifugation at 6000×g for 20 minutes at 4° C. […]

GAC phosphorylation = biological target: T2, GAC phosphorylation (Mus musculus, UniProt D3Z7P3); test: 2-D gel analysis of V5-GAC phosphorylation states from treated Dbl cells; type: cell-based; details: 48 hours
T2 construct: expressed in transfected cells; host or cells: NIH 3T3 cells (stably expressing Dbl, or parental), transient transfection
T2 sequence (D3Z7P3 55-603 isoform D3Z7P3-2 limits assumed): T1 sequence (D3Z7P3 55-603 isoform D3Z7P3-2)
Procedure: NIH 3T3 cells stably expressing the Dbl oncogene, were transiently transfected with DNA encoding a VS-tagged GAC, and then one sample was treated with 968 (10 μM) for 48 hours. The cells were then harvested and the ectopically expressed GAC was isolated by immunoprecipitation via the V5 tag. The samples were then subjected to 2-D gel analysis to separate the V5-GAC by charge and size, and the V5-tagged GAC was visualized by Western blotting using an anti-V5 antibody.
GAC runs distinctly on a 2D gel depending whether it is expressed in normal (untransformed) NIH 3T3 cells or in NIH 3T3 cells which are transformed by the Dbl oncogene. Specifically, there is one major species of GAC present in NIH 3T3 cells whereas in Dbl cells, two additional species of GAC appear which migrate with a more negative charge but at the same molecular mass as the original species (FIG. 21, first and second panels). […] Additionally, it has been shown that small molecules of the 968 family which are able to inhibit GAC in vivo do so by blocking the ability of GAC to become phosphorylated. Thus, it was of great interest to identify the amino acid(s) on GAC whose phosphorylation is causal in the activation of this enzyme.

[2] = tested on: GA activity of SKBR3 cells; test: GA activity in mitochondrial fractions of treated SKBR3 cells; type: cell-based, human; details: 2 μM
Procedure: as §1, §2
FIGS. 11A-E illustrate the effects of different treatments on GA activity. […] The addition of Pi stimulated the GA activity in control 3T3 cells, Dbl-expressing cells, and Cdc42(F28L)-expressing cells by ˜6-fold, 2-fold, and 3-fold, respectively. 100% represents the Pi-stimulated activity measured for Dbl-transformed cells that were not treated with 968. Data is the average of 3 experiments (±s.d.). […] The addition of Pi stimulated the GA activity of HMECs, MDA-MB231 cells, and SKBR3 cells by ˜5-fold, 2-fold, and 1.4-fold, respectively. […] The data are plotted as the percentage of GA activity measured for untreated SKBR3 cells and represent the average of 2 experiments. […] 100% represents the Pi-stimulated activity measured for untreated Dbl-transformed cells. […]

With `CC(C)(C)c1ccc(S(=O)(=O)/C=C/C#N)cc1` [BAY 11-7082, E3((4-t-butylphenyl)-sulfonyl)-2-propenenitrile] as the compound, how does the mitochondrial glutaminase activity ([1]; Dbl expressing NIH 3T3 cells, 48 hours, Bay 11-7082 (2 μM), Rapamycin (100 nM)) read?
Its mitochondrial glutaminase activity is “significant loss of glutaminase activity”.

What about the “direct stimulation of the enzyme by phosphate (Pi-stimulated GA activity)” value ([1]; Dbl-transformed cells, 2 μM) of the same compound?
Its value is “little or no effect”.

What about the “basal (phosphate-independent) GA activity” value ([1]; Dbl-transformed cells, 2 μM, 2 days) of the same compound?
The value was “significantly reduces their basal GA activity”.

And the “most negative migrating major species of GAC on 2D gel” value (GAC phosphorylation)?
The value was “loss of the most negative migrating major species of GAC”.

What about the “basal (phosphate-independent) GA activity” value [2] of the same compound?
Its value is “significantly reduces their basal GA activity”.

And the “direct stimulation of the enzyme by phosphate (Pi-stimulated GA activity)” value [2]?
The value was “little or no effect”.
